Laboratory results taken from publication PMC7355964, “Enhancement in Oral Absorption of Ceftriaxone by Highly Functionalized Magnetic Iron Oxide Nanoparticles” (Pharmaceutics, 2020).
“Also recorded” adds a separate entry of the source.

Experiments:
[1] = In vivo oral pharmacokinetics studies; set-up: species or system Rabbits (Oryctolaguscuniculus); conditions: rabbit, oral CFT aqueous solution
Method: The availability of CFT and internal standard cephalexin (CEP) in plasma was determined through reverse phase HPLC protocol developed and validated in our laboratories. The protein precipitation method was taken into account for extracting drug from plasma. Plasma (200 µL) containing both drugs was blended and vortexed with ACN (400 µL) for 2 min and the precipitate was separated by centrifugation at 15,483 G for 10 min. The acquired supernatant was concentrated in vacuum and reconstituted in buffer (TBAH, 100 µL; pH 7.0). A volume of 25 µL was injected into the HPLC system Shimadzu, LC20A (Shimadzu, Kyoto, Japan) equipped with a purospher C18 (5 µm, 250 × 4.6 mm) column. The mobile phase was comprised of ACN and TBAH buffer (0.005 M, pH 7.0) in a ratio of 25:75. The flow rate was adjusted to 1 mL/min, and the wavelength selected was 220 nm.
Animal studies were conducted under institutional guidelines by following the principals of institutional animal care. The studies were approved by the Ethics Committee of International Center for Chemical and Biological Sciences, University of Karachi (Project identification code ICCBS/CBSCR/IEC-014/2018; approved date 06-04-2018). All animals were healthy and purchased for Dow University of Health Sciences OJHA campus Karachi, Pakistan. Rabbits (Oryctolaguscuniculus) with 1.2 kg normal body weight were chosen for the assessment of oral in vivo pharmacokinetics studies. Rabbits were held under standard quarantine conditions with free access to food and water for 12 h. Before conducting the in vivo studies, rabbits were kept under fasting conditions but with free access to water. Rabbits were divided into three distinct categories (n = 4). The first category was given CFT-MIH-MNPs suspension at 25 mg/kg body weight portion. Rabbits of the second and third categories were provided with CFT in oral aqueous solution at 25 and 50 mg/kg body weight. Blood samples (1mL) were collected via marginal ear vein using an insulin plastic syringe at various intervals within 24 h. After centrifugation at 2688 G for 10 min, plasma was acquired and stored at –20 °C. Pharmacokinetics parameters were assessed by linear trapezoidal standard using a non-compartmental model from individual drug plasma concentrations with reference to a time curve for CFT after oral administration of nanoformulation and controls separately. The estimations of maximum drug plasma concentration (Cmax) and time to reach maximum plasma concentration (Tmax) were obtained from the drug plasma concentration curves. These parameters were utilized to ascertain the pharmacokinetics parameters area under the curve from zero to last quantifiable value (AUC0-24), mean residence time (MRT) and clearance (Cl).

[2] = set-up: method as in PMID 23143633; conditions: ref [35]; cited from earlier work

## CO/N=C(\C(=O)N[C@@H]1C(=O)N2C(C(=O)O)=C(CSc3nc(=O)c(=O)[nH]n3C)CS[C@H]12)c1csc(N)n1 [CFT, Ceftriaxone]
[1]; albino, plasma, 50 mg/kg
  Cmax: 2000 ± 600 ng/mL
  MRT: 8.4 ± 0.1 h
  Tmax: 1.5 h
[1]; albino, plasma, 50 mg/kg, read-out: AUC0-24
  AUC(0-t): 16100 ± 3700 ng·h/mL
[1]; 25 mg/kg
  CFT detection in blood plasma (HPLC): no drug was detected; also recorded: no detection of CFT in the blood plasma
[1]; 50 mg/kg
  Clearance: 3.91 ± 0.4 L/h
  Volume distribution: 33.0 ± 1.94 L
[1]; 50 mg/kg, listed as CFT Solution
  Clearance: 3.9 ± 0.4 L/h
[2]
  pH (early neutral pH): about 6.7
